“Also recorded” adds a separate entry of the source.
Test system: lashes and adjacent hairs of patients having glaucoma
Assay: Observation of lashes and adjacent hairs in glaucoma patients treated with bimatoprost in one eye
Assay type: in vivo, human
Details: glaucoma patients treated unilaterally; gross inspection and slit lamp biomicroscope
Source text: In the course of treating patients having glaucoma, treatment may only be appropriate in one eye. […] The lash appearance on the lids of the treated eyes would have appeared quite attractive if it represented a bilateral phenomenon. As a result of its asymmetric nature, the long lashes on one side could be construed as disturbing from a cosmetic standpoint. A systemic examination was preformed as a result of the asymmetric phenomenon. It soon became apparent that this altered appearance was not an isolated finding. […] Definite differences could be identified to varying degrees in the lashes and adjacent hairs of all patients who were taking the drug on a unilateral basis for longer than 6 months.
The changes in the lashes were apparent on gross inspection in several patients once attention was focused on the issue. In those with light colored hair and lashes, the differences were only seen easily with the aid of the high magnification and lighting capabilities of the slit lamp biomicroscope. In the course of glaucoma follow-up examination, attention is generally immediately focused on the eye itself. As a result of the high power magnification needed only one eye is seen at a time and the eye is seen at a high enough power that the lashes are not in focus. […]

Which “lash / hair growth in treated eye versus non-treated eye” value does the source give for `CCNC(=O)CCC/C=C\C[C@@H]1[C@@H](/C=C/[C@@H](O)CCc2ccccc2)[C@H](O)C[C@@H]1O` [bimatoprost] here?
Its value is “longer, thicker, and fuller in the treated eye than in the non-treated eye; also recorded: hair growth is stimulated”.

— patent US20090247527A1, “SUBSTITUTED GAMMA LACTAMS AS THERAPEUTIC AGENTS” (ALLERGAN, INC., priority 2008, published 2009)
